For test [1], the target named is T1, Human Thyroid Hormone Receptor β1 (TRβ1) (Homo sapiens, UniProt P10828).
T1 construct: expressed in transfected cells; host or cells: 293T cells
T1 sequence (P10828 1-461): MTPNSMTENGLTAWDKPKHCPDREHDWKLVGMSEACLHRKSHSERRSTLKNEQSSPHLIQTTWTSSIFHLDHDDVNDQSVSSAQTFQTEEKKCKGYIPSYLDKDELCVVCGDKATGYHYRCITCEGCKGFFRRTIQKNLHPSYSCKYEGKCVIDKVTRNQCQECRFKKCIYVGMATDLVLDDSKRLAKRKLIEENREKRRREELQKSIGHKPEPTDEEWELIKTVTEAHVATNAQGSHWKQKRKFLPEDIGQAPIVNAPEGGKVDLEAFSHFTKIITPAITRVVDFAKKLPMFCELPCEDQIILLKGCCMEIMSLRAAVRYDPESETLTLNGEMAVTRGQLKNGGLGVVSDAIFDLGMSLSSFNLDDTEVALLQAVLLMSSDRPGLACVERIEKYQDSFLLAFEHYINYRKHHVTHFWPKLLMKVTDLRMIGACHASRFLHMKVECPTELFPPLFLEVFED
Put plainly: Transcription activation test of human thyroid hormone receptor β1 (luciferase reporter in 293T cells). The test is classed as cell-based. The conditions noted are these: EC50 of transcription activation on TRβ1, 293T cells, luciferase activity after 24 hr; read-out: TRβ. The text has this:
(§1) Transcription Activation Test of Human Thyroid Hormone Receptors α1 (TRα1) and β1 (TRβ1)
(§2) pcDNA3.1 vector (manufactured by Invitrogen) that expresses TRα1 or β1 cloned from human liver-derived cells, and firefly luciferase expression vector pDR4-LuC (manufactured by Stratagene) having a thyroid hormone response sequence to be a reporter were transfected into 293T cells cultured in Dulbecco's modified Eagle medium (DMEM) containing 10% of activated carbon/dextran-treated fetal bovine serum (FBS) by using Lipofectamine2000 (manufactured by Invitrogen). After 16 hr, the cells were plated again in a 96 well plate, and the medium was exchanged with DMEM containing 0.1% activated carbon/dextran-treated FBS. After 3 more hr, a compound diluted with dimethyl sulfoxide solution was added, and the luciferase activity after 24 hr was measured.
(§3) As a positive control, 3,3′,5-triiodo-L-thyronine (T3), which is a biological ligand, was used. The transcription activation action of the compound on TRα1 and TRβ1 was shown by each EC50 value and the maximum luciferase activity value relative to the maximum luciferase activity value of T3 as 100.

For test [2], the target named is T2, Human Thyroid Hormone Receptor α1 (TRα1) (Homo sapiens, UniProt P10827).
T2 construct: expressed in transfected cells; host or cells: 293T cells
T2 sequence (P10827 1-410 isoform P10827-2): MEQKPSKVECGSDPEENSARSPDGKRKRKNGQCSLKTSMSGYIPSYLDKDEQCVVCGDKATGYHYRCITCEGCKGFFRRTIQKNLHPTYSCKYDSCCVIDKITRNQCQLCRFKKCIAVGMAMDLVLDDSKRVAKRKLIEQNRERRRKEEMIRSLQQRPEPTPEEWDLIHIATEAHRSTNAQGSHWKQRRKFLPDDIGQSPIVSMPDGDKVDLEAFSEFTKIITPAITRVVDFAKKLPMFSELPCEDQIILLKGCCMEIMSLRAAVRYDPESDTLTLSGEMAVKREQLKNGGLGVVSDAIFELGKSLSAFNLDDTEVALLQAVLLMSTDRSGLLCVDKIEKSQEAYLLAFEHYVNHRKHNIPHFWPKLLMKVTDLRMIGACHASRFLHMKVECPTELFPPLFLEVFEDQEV
Briefly: Transcription activation test of human thyroid hormone receptor α1 (luciferase reporter in 293T cells). The test is classed as cell-based. Conditions: ratio TRα/TRβ of the transcription activation EC50 values.
Source text: as §1, §2, §3

`Cc1cc(NC(=O)CC(=O)O)c(C)c(C)c1Cc1ccc(O)c(C2CCCCC2)n1` [Example 24, 3-({4-[(6-cyclohexyl-5-hydroxypyridin-2-yl)methyl]-2,3,5-trimethylphenyl}amino)-3-oxopropanoic acid]: in test [1], the EC50 was found to be 30 nM. In addition, in test [2], the “selectivity (TRα/TRβ)” value is listed as “B (2<(TRα/TRβ)<5)”.
For `Cc1cc(/C=C/C(=O)O)c(C)c(C)c1Cc1ccc(O)c(C2CCCCC2)n1` [Example 25, (2E)-3-{4-[(6-cyclohexyl-5-hydroxypyridin-2-yl)methyl]-2,3,5-trimethylphenyl}acrylic acid] the same measures were 1 nM and “C (2>(TRα/TRβ))”.
For `Cc1cc(CCC(=O)O)c(C)c(C)c1Cc1ccc(O)c(C2CCCCC2)n1` [Example 26, 3-{4-[(6-cyclohexyl-5-hydroxypyridin-2-yl)methyl]-2,3,5-trimethylphenyl}propanoic acid] the same measures were 6 nM and “C (2>(TRα/TRβ))”.
On to `Cc1cc(OCc2noc(=O)[nH]2)cc(C)c1Cc1ccc(O)c(C(C)C)n1` [Example 27, 3-({4-[(5-hydroxy-6-isopropylpyridin-2-yl)methyl]-3,5-dimethylphenoxy}methyl)-1,2,4-oxadiazol-5(4H)-one], for which the EC50 in test [1] is 0.3 nM. For the same compound, the “selectivity (TRα/TRβ)” value in test [2] was “C (2>(TRα/TRβ))”.
On the same counts, the results for `Cc1cc(OCc2noc(=O)[nH]2)cc(C)c1Cc1ccc(O)c(C2CCCCC2)n1` [Example 28, 3-({4-[(6-cyclohexyl-5-hydroxypyridin-2-yl)methyl]-3,5-dimethylphenoxy}methyl)-1,2,4-oxadiazol-5(4H)-one] are 0.2 nM and “C (2>(TRα/TRβ))”.
For `Cc1cc(OCc2noc(=O)[nH]2)cc(C)c1Cc1ccc(O)c(-c2ccc3ccccc3c2)n1` [Example 29, 3-[(4-{[5-hydroxy-6-(2-naphthyl)pyridin-2-yl]methyl}-3,5-dimethylphenoxy)methyl]-1,2,4-oxadiazol-5(4H)-one] the same measures were 2 nM and “A (5<(TRα/TRβ))”.
For `Cc1cc(OCc2noc(=O)[nH]2)cc(C)c1Cc1ccc(O)c(-c2ccc3c(c2)CCCC3)n1` [Example 30, 3-[(4-{[5-hydroxy-6-(5,6,7,8-tetrahydronaphthalen-2-yl)pyridin-2-yl]methyl}-3,5-dimethylphenoxy)methyl]-1,2,4-oxadiazol-5(4H)-one] the same measures were 2 nM and “A (5<(TRα/TRβ))”.
Turning to `Cc1cc(OCc2noc(=O)[nH]2)c(C)c(C)c1Cc1ccc(O)c(C(C)C)n1` [Example 31, 3-({4-[(5-hydroxy-6-isopropylpyridin-2-yl)methyl]-2,3,5-trimethylphenoxy}methyl)-1,2,4-oxadiazol-5(4H)-one], in test [1], the EC50 was found to be 0.2 nM. The “selectivity (TRα/TRβ)” value in test [2] is “B (2<(TRα/TRβ)<5)”.
For `Cc1cc(OCc2noc(=O)[nH]2)c(C)c(C)c1Cc1ccc(O)c(C2CCCC2)n1` [Example 32, 3-({4-[(6-cyclopentyl-5-hydroxypyridin-2-yl)methyl]-2,3,5-trimethylphenoxy}methyl)-1,2,4-oxadiazol-5(4H)-one] the same measures were 0.4 nM and “B (2<(TRα/TRβ)<5)”.
For `Cc1cc(OCc2noc(=O)[nH]2)c(C)c(C)c1Cc1ccc(O)c(C2CCCO2)n1` (stereo not shown) [Example 33, 3-[(4-{[5-hydroxy-6-(tetrahydrofuran-2-yl)pyridin-2-yl]methyl}-2,3,5-trimethylphenoxy)methyl]-1,2,4-oxadiazol-5(4H)-one] the same measures were 8 nM and “B (2<(TRα/TRβ)<5)”.
For `Cc1cc(OCc2noc(=O)[nH]2)c(C)c(C)c1Cc1ccc(O)c(C2CCCCC2)n1` [Example 34, 3-({4-[(6-cyclohexyl-5-hydroxypyridin-2-yl)methyl]-2,3,5-trimethylphenoxy}methyl)-1,2,4-oxadiazol-5(4H)-one] the same measures were 0.4 nM and “B (2<(TRα/TRβ)<5)”.
Consider `Cc1cc(OCc2noc(=O)[nH]2)c(C)c(C)c1Cc1ccc(O)c(C2CCCCO2)n1` (stereo not shown) [Example 35, 3-[(4-{[5-hydroxy-6-(tetrahydro-2H-pyran-2-yl)pyridin-2-yl]methyl}-2,3,5-trimethylphenoxy)methyl]-1,2,4-oxadiazol-5(4H)-one], for which, in test [1], the EC50 came to 9 nM. Also, the “selectivity (TRα/TRβ)” value in test [2] is “B (2<(TRα/TRβ)<5)”.
On the same counts, the results for `Cc1cc(OCc2noc(=O)[nH]2)c(C)c(C)c1Oc1ccc(O)c(C(C)C)n1` [Example 36, 3-({4-[(5-hydroxy-6-isopropylpyridin-2-yl)oxy]-2,3,5-trimethylphenoxy}methyl)-1,2,4-oxadiazol-5(4H)-one] are 3 nM and “C (2>(TRα/TRβ))”.
For `Cc1cc(OCc2noc(=O)[nH]2)c(F)c(C)c1Cc1ccc(O)c(C(C)C)n1` [Example 37, 3-({2-fluoro^-4-[(5-hydroxy-6-isopropylpyridin-2-yl)methyl]-3,5-dimethylphenoxy}methyl)-1,2,4-oxadiazol-5(4H)-one] the same measures were 0.1 nM and “B (2<(TRα/TRβ)<5)”.
On the same counts, the results for `Cc1cc(CC(=O)O)c(C)c(C)c1Cc1ccc(O)c(C2CCCCC2)n1` [Example 41, {4-[(6-cyclohexyl-5-hydroxypyridin-2-yl)methyl]-2,3,5-trimethylphenyl}acetic acid] are 4 nM and “B (2<(TRα/TRβ)<5)”.
In the case of `Cc1cc(C(=O)O)c(C)c(C)c1Cc1ccc(O)c(C2CCCCC2)n1` [Example 42, 4-[(6-cyclohexyl-5-hydroxypyridin-2-yl)methyl]-2,3,5-trimethylbenzoic acid], the EC50 in test [1] was found to be 300 nM. Moreover, in test [2], the “selectivity (TRα/TRβ)” value is reported as “B (2<(TRα/TRβ)<5)”.
For the compound `Cc1cc(OCC(=O)O)c(C#N)c(C)c1Cc1ccc(O)c(C2CCCCC2)n1` [Example 44, {2-cyano-4-[(6-cyclohexyl-5-hydroxypyridin-2-yl)methyl]-3,5-dimethylphenoxy}acetic acid], the EC50 in test [1] amounted to 200 nM. The “selectivity (TRα/TRβ)” value in test [2] is recorded as “B (2<(TRα/TRβ)<5)”.
`Cc1nc(OCC(=O)O)c(C)c(C)c1Cc1ccc(O)c(C2CCCCC2)n1` [Example 45, ({5-[(6-cyclohexyl-5-hydroxypyridin-2-yl)methyl]-3,4,6-trimethylpyridin-2-yl}oxy)acetic acid]: the EC50 in test [1] was 5 nM. Also, the “selectivity (TRα/TRβ)” value in test [2] is on record as “A (5<(TRα/TRβ))”.
For `Cc1cc(NC(=O)CC(=O)O)cc(C)c1Cc1ccc(O)c(C2CCCCCC2)n1` [Example 52, 3-({4-[(6-cycloheptyl-5-hydroxypyridin-2-yl)methyl]-3,5-dimethylphenyl}amino)-3-oxopropanoic acid] the same measures were 6 nM and “A (5<(TRα/TRβ))”.
For `Cc1cc(NC(=O)CC(=O)O)c(Cl)c(C)c1Cc1ccc(O)c(C2CCCCC2)n1` [Example 54], the EC50 in test [1] came out at 6 nM. The “selectivity (TRα/TRβ)” value in test [2] is “A (5<(TRα/TRβ))”.
For `Cc1cccc(-c2nc(Cc3c(C)cc(OCc4noc(=O)[nH]4)c(F)c3C)ccc2O)c1F` [Example 60, 3-[(2-fluoro-4-{[6-(2-fluoro-3-methylphenyl)-5-hydroxypyridin-2-yl]methyl}-3,5-dimethylphenoxy)methyl]-1,2,4-oxadiazol-5(4H)-one] the same measures were 0.6 nM and “A (5<(TRα/TRβ))”.
On to `Cc1cc(NCC(=O)O)c(C)c(C)c1Cc1ccc(O)c(C2CCCCC2)n1` [Example 62, N-{4-[(6-cyclohexyl-5-hydroxypyridin-2-yl)methyl]-2,3,5-trimethylphenyl}glycine], for which the EC50 in test [1] amounted to 4 nM. Moreover, the “selectivity (TRα/TRβ)” value in test [2] is reported as “B (2<(TRα/TRβ)<5)”.
On the same counts, the results for `Cc1cc(C(=O)NCC(=O)O)cc(C)c1Cc1ccc(O)c(C2CCCCC2)n1` [Example 64, N-{4-[(6-cyclohexyl-5-hydroxypyridin-2-yl)methyl]-3,5-dimethylbenzoyl}glycine] are 80 nM and “B (2<(TRα/TRβ)<5)”.

The values are drawn from US8791266B2, “Thyroid hormone β receptor agonist” (Mitsubishi Tanabe Pharma Corporation, priority 2009, dated 2014).
